Assays:
[1] = tested on: HeLa cells; test: Annexin V-FITC/PI apoptosis staining; format: cell-based, human; conditions: 72 h
Procedure: Apoptosis in HeLa cells was evaluated using Annexin V‐FITC/PI staining. Hela cells (20 × 10^3) were seeded into 24‐well plates and incubated for 72 h with compound 2. The final concentration of DMSO for the tested compound was 0.1%, which was consistent with the percentage of DMSO used in the negative control. After treatments, cells were resuspended in a 100 μL of assay buffer per well, after which 5 μL of Annexin V‐FITC and 1 μL of PI reagents were added. […] The cells were analyzed with a Becton Dickinson FACScan flow cytometer using the Cell Quest software, version 4 (Franklin Lakes, NJ, USA).

[2] = tested on: HeLa cells; test: Thioflavin T (ThT) protein misfolding staining; format: cell-based, human; conditions: HeLa, 3, 6 and 12 µM, 72 h; p < 0.01 (3 µM), p < 0.001 (6, 12 µM) vs. Ctrl
Procedure: Protein misfolding was analyzed by using Thioflavin T (ThT, Sigma Aldrich, St. Louis, MO, USA) staining.^[ [39] ^] HeLa cells (4 × 10^3 cells well^−1) were grown in 96‐well plates and allowed to adhere for 24 h. The medium was then replaced, and the cells were treated with compound 2 (3, 6, and 12 µM) for 72 h. The final concentration of DMSO for the tested compound was 0.1%, which is consistent with the percentage of DMSO used in the negative control. After treatments, the culture medium was replaced, cells were washed with PBS and 100 μL well^−1 of ThT was added (final concentration, 20 µM). After incubation at 37 °C for 20 min in the dark, live cells were analyzed by using ZOE Fluorescent Cell Imager microscope (Biorad, Hercules, California, USA). Magnification, 20×. Scale bar: 100 μm (N ≥ 5). Quantitative analyses were performed in end point mode using a PerkinElmer EnSpire multimode plate reader (excitation/emission 450 nm/482 nm).

[3] = molecular target: T1, BAG3 (Homo sapiens, UniProt O95817); test: t-LiP-MS (targeted limited proteolysis-MS) in HeLa cell lysate; format: binding; conditions: SP18 100 µM, subtilisin 30 min
T1 construct: endogenous in cells; host or cells: HeLa cell lysate
T1 sequence (O95817 whole entry): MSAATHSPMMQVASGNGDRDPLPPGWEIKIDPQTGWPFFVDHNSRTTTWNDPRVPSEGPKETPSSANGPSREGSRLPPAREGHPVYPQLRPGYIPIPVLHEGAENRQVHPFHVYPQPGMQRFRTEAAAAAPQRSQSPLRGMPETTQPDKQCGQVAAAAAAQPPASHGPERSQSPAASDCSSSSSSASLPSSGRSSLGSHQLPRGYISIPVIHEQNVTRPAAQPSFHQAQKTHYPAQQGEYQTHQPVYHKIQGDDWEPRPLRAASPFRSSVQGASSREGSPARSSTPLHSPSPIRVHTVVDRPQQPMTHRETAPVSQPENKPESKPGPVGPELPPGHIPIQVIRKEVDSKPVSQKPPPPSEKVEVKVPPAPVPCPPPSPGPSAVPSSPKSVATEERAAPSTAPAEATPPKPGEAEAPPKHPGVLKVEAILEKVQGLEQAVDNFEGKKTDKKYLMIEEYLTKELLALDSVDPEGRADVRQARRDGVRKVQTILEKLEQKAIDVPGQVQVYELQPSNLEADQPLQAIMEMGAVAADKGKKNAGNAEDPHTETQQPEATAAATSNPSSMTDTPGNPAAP
Procedure: To develop the t‐LiP‐MS experiment, MRM methods were optimized by selecting tryptic peptides for BAG3 (UniProt Accession: O95817) using the Human PeptideAtlas data repository in combination with SRMAtlas for their daughter ion identification. First, the three best transitions for each peptide were selected (obtaining a list of 57 transitions) and tested on a tryptic‐digested HeLa cell lysate, following the protocol of Capuano et al., 2024.^[ [41] ^] For chromatographic separation, 15 µL of peptide mixture samples (dissolved in 10% formic acid (FA) to a final concentration of 2 µg µL^−1) were injected and separated on an Aeris Peptide XB C18 column (50 × 2.1 mm, 3.6 μm, 100 Å, Phenomenex, Torrance, USA) using a gradient from 5% to 95% B in 12 min (A: 0.1% FA in H2O, B: 0.1% FA in CH3CN). QTrap parameters were as follows: curtain gas (CUR) = 30; ion‐spray voltage (IS) = 5500; temperature (TEM) = 250 °C; ion source gas 1 (GS1) = 25; ion source gas 2 (GS2) = 25; declustering potential (DP) = 80; entrance potential (EP) = 15; collision cell exit potential (CXP) = 12. Data acquisition and processing were performed using Analyst software 1.6.2 (AB Sciex, Foster City, CA, USA). At the end of the preliminary experiment, 14 best transitions were selected for the final MRM method.
For the t‐Lip‐MS experiment, HeLa cell lysate ([…]) was divided into aliquots and incubated for 1 hr either with DMSO (control sample) or SP18 (100 µM in DMSO) at room temperature under shaking (Mini‐Rotator, Biosan). Samples were then first subjected to limited proteolysis with the nonspecific enzyme subtilisin (enzyme‐to‐proteins ratio of 1:1500 w/w) for 30 min, at room temperature and under continuous shaking (500 rpm, Thermomixer, Biosan) and then extensively digested with the specific protease trypsin (enzyme to proteins ratio of 1:100 w/w, overnight, room temperature, 300 RPM).^[ [42] ^] […] Fold change (Fc) (the ratio between the peak area in the treated sample and control sample) was calculated for each peptide, and only those with Fc ≥1.5 and p‐value ≤0.05 were considered protected.^[ [41] ^]

Compound | cells undergoing apoptosis ([1]; 20 µM, p < 0.05 vs. control) [%] | cells undergoing apoptosis ([1]; 30 µM, p < 0.05 vs. control) [%] | cells undergoing apoptosis ([1]; 50 µM, p < 0.01 vs. control) [%] | protein misfolding and aggregate formation (ThT) [2] | Fold change (Fc) of protected BAG3 peptide V [432–445] K ([3]; p value 0.01) | Fold change (Fc) of protected BAG3 peptide E [461–473] R ([3]; p value 0.02) | Fold change (Fc) of protected BAG3 peptide T [231–249] K ([3]; p value 0.04)
O=C(OCc1cn(Cc2ccc3c(c2)C(=O)c2ccccc2C3=O)nn1)c1cccc([N+](=O)[O-])c1 [Compound 2, (1‐((9,10‐Dioxo‐9,10‐dihydroanthracen‐2‐yl)methyl)‐1H‐1,2,3‐triazol‐4‐yl)methyl 3‐nitrobenzoate] | 21.6 ± 1.14 | 28.0 ± 3.41 | 40.2 ± 2.11 | significant induction of protein misfolding and aggregate formation | – | – | –
O=C(OCc1cn(Cc2ccc(C(=O)c3ccccc3)cc2)nn1)c1cccc([N+](=O)[O-])c1 [SP18] | – | – | – | – | 1.74 | 1.67 | 1.68
